Data published in patent US20230242530A1, “8-(AZETIDIN-1-YL)-[1,2,4]TRIAZOLO[1,5-A]PYRIDINYL COMPOUNDS, COMPOSITIONS AND METHODS OF USE THEREOF” (Genentech, Inc., priority 2016, published 2023).

Key:
[1] = biological target: T1, isolated recombinant JAK1 kinase domain (Homo sapiens, UniProt P23458); assay: JAK enzyme assay, JAK1 kinase domain (Caliper LabChip); format: biochemical; conditions: 1.5 nM JAK1, ATP 25 μM, Morrison tight binding model
T1 construct: isolated recombinant JAK1 and JAK2 kinase domain
Procedure: (§1) JAK Enzyme Assays were Carried Out as Follows:
(§2) The activity of the isolated recombinant JAK1 and JAK2 kinase domain was measured by monitoring phosphorylation of a peptide derived from JAK3 (Val-Ala-Leu-Val-Asp-Gly-Tyr-Phe-Arg-Leu-Thr-Thr, fluorescently labeled on the N-terminus with 5-carboxyfluorescein) using the Caliper LabChip® technology (Caliper Life Sciences, Hopkinton, Mass.). […] Reactions were incubated at 22 °C in 384-well polypropylene microtiter plates for 30 minutes and then stopped by addition of 25 μL of an EDTA containing solution (100 mM HEPES buffer (pH 7.2), 0.015% Brij-35, 150 mM EDTA), resulting in a final EDTA concentration of 50 mM. After termination of the kinase reaction, the proportion of phosphorylated product was determined as a fraction of total peptide substrate using the Caliper LabChip® 3000 according to the manufacturer's specifications. Ki values were then determined using the Morrison tight binding model (Morrison, J. F., Biochim. Biophys. Acta. 185:269-296 (1969); William, J. W. and Morrison, J. F., Meth. Enzymol., 63:437-467 (1979)) modified for ATP-competitive inhibition [Ki=Ki,app/(1+[ATP]/Km,app)].

[2] = biological target: T2, isolated recombinant JAK2 kinase domain (Homo sapiens, UniProt O60674); assay: JAK enzyme assay, JAK2 kinase domain (Caliper LabChip); format: biochemical; conditions: 0.2 nM JAK2, ATP 25 μM, Morrison tight binding model
T2 construct: isolated recombinant JAK1 and JAK2 kinase domain
Procedure: as §1, §2

[3] = system: JAK1-dependent STAT6 phosphorylation downstream of IL-13 stimulation in BEAS-2B cells; assay: JAK1 pathway assay in cell lines: IL-13 p-STAT6 BEAS-2B; format: cell-based; conditions: BEAS-2B human bronchial epithelial cells, 1 hr compound, IL-13 15 min, MSD readout
Procedure: JAK1 Pathway Assay in Cell Lines was Carried Out as Follows:
Inhibitor potency (EC50) was determined in cell-based assays designed to measure JAK1 dependent STAT phosphorylation. As noted above, inhibition of IL-4, IL-13, and IL-9 signalling by blocking the Jak/Stat signaling pathway can alleviate asthmatic symptoms in pre-clinical lung inflammation models (Mathew et al., 2001, J Exp Med 193(9): 1087-1096; Kudlacz et. al., 2008, Eur J. Pharmacol 582(1-3): 154-161).
In one assay approach, TF-1 human erythroleukemia cells obtained from the American Type Culture Collection (ATCC; Manassas, Va.) were used to measure JAK1-dependent STAT6 phosphorylation downstream of IL-13 stimulation. Prior to use in the assays, TF-1 cells were starved of GM-CSF overnight in OptiMEM medium (Life Technologies, Grand Island, N.Y.) supplemented with 0.5% charcoal/dextran stripped fetal bovine serum (FBS), 0.1 mM non-essential amino acids (NEAA), and 1 mM sodium pyruvate. The assays were run in 384-well plates in serum-free OptiMEM medium using 300,000 cells per well. In a second assay approach, BEAS-2B human bronchial epithelial cells obtained from ATCC were plated at 100,000 cells per well of a 96-well plate one day prior to the experiment. The BEAS-2B assay was run in complete growth medium (bronchial epithelial basal medium plus bulletkit; Lonza; Basel, Switzerland).
Test compounds were serially diluted 1:2 in DMSO and then diluted 1:50 in medium just before use. Diluted compounds were added to the cells, for a final DMSO concentration of 0.2%, and incubated for 30 mi (for the TF-1 assay) or 1 hr (for the BEAS-2B assay) at 37 QC. Then, cells were stimulated with human recombinant cytokine at their respective EC90 concentrations, as previously determined for each individual lot. Cells were stimulated with IL-13 (R&D Systems, Minneapolis, Minn.) for 15 min at 37 °C. The TF-1 cell reactions were stopped by the direct addition of 10× lysis buffer (Cell Signaling Technologies, Danvers, Mass.), whereas the BEAS-2B cell incubations were halted by the removal of medium and addition of 1× lysis buffer. The resultant samples were frozen in the plates at −80 °C. Compound mediated inhibition of STAT6 phosphorylation was measured in the cell lysates using MesoScale Discovery (MSD) technology (Gaithersburg, Md.). EC50 values were determined as the concentration of compound required for 50% inhibition of STAT phosphorylation relative to that measured for the DMSO control.

T2 sequence (O60674 849-1124 limits assumed): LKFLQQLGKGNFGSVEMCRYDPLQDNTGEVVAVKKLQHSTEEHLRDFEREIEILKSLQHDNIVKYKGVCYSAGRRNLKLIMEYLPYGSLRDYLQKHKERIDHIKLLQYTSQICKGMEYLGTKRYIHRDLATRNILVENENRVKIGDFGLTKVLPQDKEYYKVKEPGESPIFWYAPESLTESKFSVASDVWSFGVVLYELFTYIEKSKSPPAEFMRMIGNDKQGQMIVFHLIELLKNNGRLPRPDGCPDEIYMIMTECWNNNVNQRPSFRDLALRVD
T1 sequence (P23458 875-1153 limits assumed): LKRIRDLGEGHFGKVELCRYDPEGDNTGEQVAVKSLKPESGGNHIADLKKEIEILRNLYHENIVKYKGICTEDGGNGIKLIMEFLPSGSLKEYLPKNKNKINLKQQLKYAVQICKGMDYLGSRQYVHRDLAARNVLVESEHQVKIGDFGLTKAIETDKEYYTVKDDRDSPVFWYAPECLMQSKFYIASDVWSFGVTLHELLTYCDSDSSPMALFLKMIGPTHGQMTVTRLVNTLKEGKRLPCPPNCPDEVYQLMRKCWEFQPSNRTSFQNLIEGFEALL

Structure (SMILES) | Ki [1] [nM] | Ki [2] [nM] | EC50 [3] [nM]
CCc1cnn(C2(CC#N)CN(c3cccn4nc(Nc5cnn(CC(=O)N6CCC(N(C)C7COC7)CC6)c5)nc34)C2)c1 [Example 34, 2-[3-(4-ethylpyrazol-1-yl)-1-[2-[[1-[2-[4-[methyl(oxetan-3-yl)amino]-1-piperidyl]-2-oxo-ethyl]pyrazol-4-yl]amino]-[1,2,4]triazolo[1,5-a]pyridin-8-yl]azetidin-3-yl]acetonitrile] | 0.4 | 0.3 | 15
CN1CCN(C(=O)Cn2cc(Nc3nc4c(N5CC(CC#N)(c6cccc(Cl)c6)C5)cccn4n3)cn2)CC1 [Example 35, 2-[3-(3-chlorophenyl)-1-[2-[[1-[2-(4-methylpiperazin-1-yl)-2-oxo-ethyl]pyrazol-4-yl]amino]-[1,2,4]triazolo[1,5-a]pyridin-8-yl]azetidin-3-yl]acetonitrile] | 0.8 | 2.8 | 39
CCc1cnn(C2(CC#N)CN(c3cccn4nc(Nc5ccc(C(=O)N6CCC(N7CCOCC7)CC6)cc5)nc34)C2)c1 [Example 36, 2-[3-(4-ethylpyrazol-1-yl)-1-[2-[4-(4-morpholinopiperidine-1-carbonyl)anilino]-[1,2,4]triazolo[1,5-a]pyridin-8-yl]azetidin-3-yl]acetonitrile] | 0.4 | 1.6 | 52
CCc1cnn(C2(CC#N)CN(c3cccn4nc(Nc5ccc(C(=O)N6CCN(C7CCOCC7)CC6)cc5)nc34)C2)c1 [Example 37, 2-[3-(4-ethylpyrazol-1-yl)-1-[2-[4-(4-tetrahydropyran-4-ylpiperazine-1-carbonyl)anilino]-[1,2,4]triazolo[1,5-a]pyridin-8-yl]azetidin-3-yl]acetonitrile] | 0.5 | 2.9 | 23
CCc1cnn(C2(CC#N)CN(c3cccn4nc(Nc5ccc(C(=O)N6CCN(C)CC6)cc5)nc34)C2)c1 [Example 38, 2-(3-(4-ethyl-1H-pyrazol-1-yl)-1-(2-((4-(4-methylpiperazine-1-carbonyl)phenyl)amino)-[1,2,4]triazolo[1,5-a]pyridin-8-yl)azetidin-3-yl)acetonitrile] | 0.7 | 4.1 | 615
CCc1cnn(C2(CC#N)CN(c3cccn4nc(Nc5cnn(CC(=O)N6CCC(CN7CCN(C(=O)OC)CC7)CC6)c5)nc34)C2)c1 [Example 39, methyl4-[[1-[2-[4-[[8-[3-(cyanomethyl)-3-(4-ethylpyrazol-1-yl)azetidin-1-yl]-[1,2,4]triazolo[1,5-a]pyridin-2-yl]amino]pyrazol-1-yl]acetyl]-4-piperidyl]methyl]piperazine-1-carboxylate] | 0.3 | 1.6 | 24
CN1CCN(C(=O)Cn2cc(Nc3nc4c(N5CC(CC#N)(n6cc(CCF)cn6)C5)cccn4n3)cn2)CC1 [Example 40, 2-[3-[4-(2-fluoroethyl)pyrazol-1-yl]-1-[2-[[1-[2-(4-methylpiperazin-1-yl)-2-oxo-ethyl]pyrazol-4-yl]amino]-[1,2,4]triazolo[1,5-a]pyridin-8-yl]azetidin-3-yl]acetonitrile] | 0.3 | 0.2 | 18
CCc1cnn(C2(CC#N)CN(c3cccn4nc(Nc5cnn(CC(=O)N6CCN(CC)CC6)c5)nc34)C2)c1 [Example 41] | 0.5 | 1.9 | 65
CCc1cnn(C2(CC#N)CN(c3cccn4nc(Nc5cnn(CC(=O)N6CCC(CN7CCN(CC(=O)N(C)C)CC7)CC6)c5)nc34)C2)c1 [Example 42, 2-[4-[[1-[2-[4-[[8-[3-(cyanomethyl)-3-(4-ethylpyrazol-1-yl)azetidin-1-yl]-[1,2,4]triazolo[1,5-a]pyridin-2-yl]amino]pyrazol-1-yl]acetyl]-4-piperidyl]methyl]piperazin-1-yl]-N,N-dimethyl-acetamide] | 0.4 | 2.2 | 42
CN1CCN(C(=O)Cn2cc(Nc3nc4c(N5CC(CC#N)(n6cc(C7CC7)cn6)C5)cccn4n3)cn2)CC1 [Example 43, 2-[3-(4-cyclopropylpyrazol-1-yl)-1-[2-[[1-[2-(4-methylpiperazin-1-yl)-2-oxo-ethyl]pyrazol-4-yl]amino]-[1,2,4]triazolo[1,5-a]pyridin-8-yl]azetidin-3-yl]acetonitrile] | 0.6 | 4 | 48
CCc1cnn(C2(CC#N)CN(c3cccn4nc(Nc5ccc(C(=O)N6CCN(C7COC7)CC6)cc5)nc34)C2)c1 [Example 44, 2-[3-(4-ethylpyrazol-1-yl)-1-[2-[4-[4-(oxetan-3-yl)piperazine-1-carbonyl]anilino]-[1,2,4]triazolo[1,5-a]pyridin-8-yl]azetidin-3-yl]acetonitrile] | 2.2 | 29.5 | 648
CCc1cnn(C2(CC#N)CN(c3cccn4nc(Nc5cnn(CC(=O)N6CCC(N(C)CC7(C#N)CC7)CC6)c5)nc34)C2)c1 [Example 45, 1-[[[1-[2-[4-[[8-[3-(cyanomethyl)-3-(4-ethylpyrazol-1-yl)azetidin-1-yl]-[1,2,4]triazolo[1,5-a]pyridin-2-yl]amino]pyrazol-1-yl]acetyl]-4-piperidyl]-methyl-amino]methyl]cyclopropane carbonitrile] | 0.3 | 0.8 | 21
CCc1cnn(C2(CC#N)CN(c3cccn4nc(Nc5cnn(CC(=O)N6CCN(CCOC)CC6)c5)nc34)C2)c1 [Example 46, 2-[3-(4-ethylpyrazol-1-yl)-1-[2-[[1-[2-[4-(2-methoxyethyl)piperazin-1-yl]-2-oxo-ethyl]pyrazol-4-yl]amino]-[1,2,4]triazolo[1,5-a]pyridin-8-yl]azetidin-3-yl]acetonitrile] | 0.2 | 0.2 | 7
CCc1cnn(C2(CC#N)CN(c3cccn4nc(Nc5cnn(CC(=O)N6CCC(CN7CCN(C)CC7)CC6)c5)nc34)C2)c1 [Example 47] | 0.4 | 0.2 | 11
CN1CCN(C(=O)Cn2cc(Nc3nc4c(N5CC(CC#N)(n6cc(CNCC(F)(F)F)cn6)C5)cccn4n3)cn2)CC1 [Example 48] | 0.5 | 1.5 | 33
CN1CCN(C(=O)Cn2cc(Nc3nc4c(N5CC(CC#N)(n6cc(C7CCCC7)cn6)C5)cccn4n3)cn2)CC1 [Example 49, 2-[3-(4-cyclopentylpyrazol-1-yl)-1-[2-[[1-[2-(4-methylpiperazin-1-yl)-2-oxo-ethyl]pyrazol-4-yl]amino]-[1,2,4]triazolo[1,5-a]pyridin-8-yl]azetidin-3-yl]acetonitrile] | 0.6 | 2.4 | 30
CCc1cnn(C2(CC#N)CN(c3cccn4nc(Nc5ccc6c(c5)CCN(C)C6)nc34)C2)c1 [Example 50, 2-[3-(4-ethylpyrazol-1-yl)-1-[2-[(2-methyl-3,4-dihydro-1H-isoquinolin-6-yl)amino]-[1,2,4]triazolo[1,5-a]pyridin-8-yl]azetidin-3-yl]acetonitrile] | 1.8 | 2 | 65
CCc1cnn(C2(CC#N)CN(c3cccn4nc(Nc5ccc6c(c5)CCN(C5COC5)C6)nc34)C2)c1 [Example 51, 2-[3-(4-ethylpyrazol-1-yl)-1-[2-[[2-(oxetan-3-yl)-3,4-dihydro-1H-isoquinolin-6-yl]amino]-[1,2,4]triazolo[1,5-a]pyridin-8-yl]azetidin-3-yl]acetonitrile] | 0.3 | 1.6 | 44
